Reference: patent US7569724B2, “Carbamic acid compounds comprising an amide linkage as HDAC inhibitors” (Topotarget UK Limited, priority 2000, dated 2009)
Structures can show the parent of a compound that is named as a salt. Where two headings read alike, the source gives them in different places.

Legend:
HDAC (HeLa cell extract) = assay: Primary assay: deacetylase activity, HeLa cell extract as source of HDAC; assay type: biochemical, human; conditions: HeLa cell extract; for HDAC Inhibition HeLa, percent / percent HDAC inhibition at the stated concentration: @ 500 nM
Description: Briefly, this assay relies on the release of radioactive acetate from a radioactively labelled histone fragment by the action of HDAC enzyme. Test compounds, which inhibit HDAC, reduce the yield of radioactive acetate. Signal (e.g., scintillation counts) measured in the presence and absence of a test compound provide an indication of that compound's ability to inhibit HDAC activity. Decreased activity indicates increased inhibition by the test compound.
The histone fragment was an N-terminal sequence from histone H4, and it was labelled with radioactively labelled acetyl groups using tritiated acetylcoenzyme A (coA) in conjunction with an enzyme which is the histone acetyltransferase domain of the transcriptional coactivator p300. […] The acetylated peptide was then separated from free acetyl coA by size exclusion chromatography on Sephadex G-15 (Sigma G-15-120), using distilled H2O as the mobile phase.
After purification of the radiolabelled histone fragment, it was incubated with a source of HDAC (e.g., an extract of HeLa cells (a rich source of HDAC), recombinantly produced HDAC1 or HDAC2) and any released acetate was extracted into an organic phase and quantitatively determined using scintillation counting. By including a test compound with the source of HDAC, that compound's ability to inhibit the HDAC was determined.
The HeLa cell extract was made from HeLa cells (ATCC Ref. No. CCL-2) by freeze-thawing three times in 60 mM TrisCl pH 8.0, 450 mM NaCl, 30% glycerol. Two cell volumes of extraction buffer were used, and particulate material was centrifuged out (20800 g, 4° C., 10 min). The supernatant extract having deacetylase activity was aliquotted and frozen for storage.
A source of HDAC (e.g., 2 μL of crude HeLa extract, 5 μL of HDAC1 or HDAC2; in elution buffer, as above) was incubated with 3 μL of radioactively labelled peptide along with appropriate dilutions of candidate compounds (1.5 μL) in a total volume of 150 μL of buffer (20 mM Tris pH 7.4, 10% glycerol). The reaction was carried out at 37° C. for one hour, after which the reaction was stopped by adding 20 μL of 1 M HCl/0.4 M sodium acetate. […] Radioactivity was measured using a Tri-Carb 2100TR Liquid Scintillation Analyzer (Packard).
Percent activity (% activity) for each test compound was calculated as: % activity={(S^C−B)/(S^o−B)}×100 wherein S^C denotes signal measured in the presence of enzyme and the compound being tested, S^o denotes signal measured in the presence of enzyme but in the absence of the compound being tested, and B denotes the background signal measured in the absence of both enzyme and compound being tested.

HeLa cells = assay: Secondary assay: cell proliferation WST-1, HeLa; assay type: cell-based; conditions: Homo sapiens, 48 h, read-out: Cell Proliferation Inhibition WST-1 (IC50 unless otherwise specified) HeLa
Experimental: Compounds with HDAC inhibition activity, as determined using the primary assay, were subsequently evaluated using secondary cell-based assays. The following cell lines were used:
HeLa—Human cervical adenocarcinoma cell line (ATCC ref. No. CCL-2).
Cells were plated in 96-well plates at 3-10×10^3 cells/well in 100 μL of culture medium. The following day, different concentrations of candidate compounds were added and the cells incubated at 37° C. for 48 h. Subsequently, 10 μL/well of WST-1 reagent was added and the cells reincubated for 1 hour. After the incubation time, absorbance was measured.
WST-1 is a tetrazolium salt which is cleaved to formazan dye by cellular enzymes. An expansion in the number of viable cells results in an increase in the overall activity of mitochondrial dehydrogenases in the sample. This augmentation in the enzyme activity leads to an increase in the amount of formazan dye formed, which directly correlates to the number of metabolically active cells in the culture. The formazan dye produced is quantified by a scanning multiwell spectrophotometer by measuring the absorbance of the dye solution at 450 nm wavelength (reference wavelength 690 nm).
Percent activity (% activity) in reducing the number of viable cells was calculated for each test compound as: % activity={(S^C−B)/(S^o−B)}×100 wherein S^C denotes signal measured in the presence of the compound being tested, S^o denotes signal measured in the absence of the compound being tested, and B denotes the background signal measured in blank wells containing medium only.
IC50 values were calculated using the software package Prism 3.0 (GraphPad software Inc., San Diego, Calif.), setting top value at 100 and bottom value at 0.

[1] = read-out: HDAC Inhibition (IC50 unless otherwise specified) HeLa

O=C(/C=C/c1ccncc1)NCCCCCC(=O)NO (as salt: oxalate) [PX106521, (E)-N-(5-Hydroxycarbamoylpentyl)-3-pyridin-4-yl-acrylamide oxalate]
melting point: 168 to 170 °C

O=C(/C=C/c1ccccn1)NCCCCCC(=O)NO (as salt: oxalate) [PX106528, (E)-N-(5-Hydroxycarbamoylpentyl)-3-pyridin-2-yl-acrylamide oxalate]
melting point: 126 to 128 °C

O=C(/C=C/c1cccnc1)NCCCCCC(=O)NO (as salt: oxalate) [PX116231, E-N-(5-Hydroxycarbamoyl-pentyl)-3-pyridin-3-yl-acrylamide oxalate]
melting point: 157 to 159 °C

O=C(CCCCCNC(=O)CCc1ccco1)NO [PX105827, 6-(3-Furan-2-yl-propionylamino)-hexanoic acid hydroxyamide]
HDAC Inhibition HeLa, percent (HDAC (HeLa cell extract)): 34% @ 500 nM | percent HDAC inhibition at the stated concentration (HDAC (HeLa cell extract); comparative tables): 34% @ 500 nM | melting point: 127 to 128 °C

O=C(CCCCCNC(=O)Cc1ccc(-c2ccccc2)cc1)NO [PX106488, 6-(2-Biphenyl-4-yl-acetylamino)-hexanoic acid hydroxyamide]
HDAC Inhibition HeLa, percent (HDAC (HeLa cell extract)): 51% @ 500 nM | percent HDAC inhibition at the stated concentration (HDAC (HeLa cell extract); comparative tables): 51% @ 500 nM | melting point: 226 to 227 °C

O=C(CCCCNC(=O)c1ccc2ccccc2c1)NO [PX106492, Naphthalene-2-carboxylic acid (4-hydroxycarbamoyl-butyl)-amide]
HDAC Inhibition HeLa, percent (HDAC (HeLa cell extract)): 42% @ 500 nM | melting point: 155 to 156 °C

O=C(CCCCCNC(=O)c1ccc(I)cc1)NO [PX106494, N-(5-Hydroxycarbamoylpentyl)-4-iodobenzamide]
IC50 (HDAC (HeLa cell extract); [1]): 100 nM | melting point: 168 to 169 °C

O=C(CCCCCNC(=O)c1ccc([N+](=O)[O-])cc1)NO [PX106495, N-(5-Hydroxycarbamoylpentyl)-4-nitrobenzamide]
HDAC Inhibition HeLa, percent (HDAC (HeLa cell extract)): 34% @ 500 nM | melting point: 139.5 to 141 °C

N#Cc1ccc(C(=O)NCCCCCC(=O)NO)cc1 [PX106497, 4-Cyano-N-(5-hydroxycarbamoylpentyl)-benzamide]
HDAC Inhibition HeLa, percent (HDAC (HeLa cell extract)): 30% @ 500 nM | melting point: 234 to 236 °C

O=C(CCCCCNC(=O)CCc1ccccc1)NO [PX106516, 6-(3-Phenylpropionylamino)hexanoic acid hydroxyamide]
HDAC Inhibition HeLa, percent (HDAC (HeLa cell extract)): 27% @ 500 nM | melting point: 107 °C

COc1ccc(/C=C/C=C/C(=O)NCCCCCC(=O)NO)cc1 [PX106524, (2E,4E)-(4-Methoxyphenyl)penta-2,4-dienoic acid (5-hydroxycarbamoylpentyl)-amide]
HDAC Inhibition HeLa, percent (HDAC (HeLa cell extract)): 57% @ 500 nM | melting point: 152 to 154 °C

O=C(CCCCCNC(=O)C/C=C/c1ccccc1)NO [PX116211, (E)-N-[6-(Hydroxyamino)-6-oxohexyl]-4-phenyl-3-butenamide]
melting point: 127 to 128 °C

O=C(/C=C/c1cccc(NC(=O)CCCc2ccccc2)c1)NO [PX116212, (E)-N-Hydroxy-3-{3-[(4-phenylbutanoyl)amino]phenyl}-2-propenamide]
HDAC Inhibition HeLa, percent (HDAC (HeLa cell extract)): 72% @ 500 nM | melting point: 152 to 153 °C

COc1ccc(C(=O)NCCCCCC(=O)NO)cc1OC [PX116213, N-[6-(Hydroxyamino)-6-oxohexyl]-3,4-dimethoxybenzamide]
HDAC Inhibition HeLa, percent (HDAC (HeLa cell extract)): 48% @ 500 nM | melting point: 133 °C

O=C(CCCCCNC(=O)Cc1c[nH]c2ccccc12)NO [PX116214, 6-(2-1H-lndol-3-yl-acetylamino)-hexanoic acid hydroxyamide]
HDAC Inhibition HeLa, percent (HDAC (HeLa cell extract)): 35% @ 500 nM | melting point: 130 to 131.5 °C

O=C(CCCCCNC(=O)c1ccc(Br)cc1)NO [PX116215, 4-Bromo-N-(5-hydroxycarbamoyl-pentyl)-benzamide]
HDAC Inhibition HeLa, percent (HDAC (HeLa cell extract)): 70% @ 500 nM | melting point: 164 to 166 °C

O=C(CCCCC(=O)NCCc1c[nH]c2ccccc12)NO [PX116217, Hexanedioic acid hydroxyamide [2-(1H-indol-3-yl)-ethyl]-amide]
HDAC Inhibition HeLa, percent (HDAC (HeLa cell extract)): 17% @ 500 nM | melting point: 121 to 122.5 °C

O=C(CCCCCCC(=O)Nc1cccc2ccccc12)NO [PX116218, Octanedioic acid hydroxyamide naphthalen-1-ylamide]
IC50 (HDAC (HeLa cell extract); [1]): 33 nM | melting point: 115 to 116.5 °C

O=C(CCCCCNC(=O)c1ccc(Br)o1)NO [PX116221, 5-Bromo-furan-2-carboxylic acid (5-hydroxycarbamoyl-pentyl)-amide]
HDAC Inhibition HeLa, percent (HDAC (HeLa cell extract)): 72% @ 500 nM | melting point: 122 to 124 °C

O=C(CCCCCCC(=O)NCCc1cccc2ccccc12)NO [PX116224, Octanedioic acid hydroxyamide (2-naphthalen-1-yl-ethyl)-amide]
HDAC Inhibition HeLa, percent (HDAC (HeLa cell extract)): 78% @ 500 nM | melting point: 120 to 121.5 °C

O=C(/C=C/c1ccc(NC(=O)Cc2cccc3ccccc23)cc1)NO [PX116244, (E)-N-Hydroxy-3-(4-{[2-(1-naphthyl)acetyl]amino}phenyl)-2-propenamide]
IC50 (HDAC (HeLa cell extract); [1]): 22 nM | IC50 (HeLa cells): < 310 nM

O=C(/C=C/c1ccc(-c2cc(C(F)(F)F)cc(C(F)(F)F)c2)o1)NCCCCCC(=O)NO [PX117224, (E)-3-{5-[3,5-bis(trifluoromethyl)phenyl]-2-furyl}-N-[6-(hydroxyamino)-6-oxohexyl]2-propenamide]
HDAC Inhibition HeLa, percent (HDAC (HeLa cell extract)): 81% @ 500 nM | IC50 (HeLa cells): 26000 nM

O=C(/C=C/C=C/c1cccc2ccccc12)NCCCCCC(=O)NO [PX117237, (2E)(4E)-5-Naphthalen-1-yl-penta-2,4-dienoic acid (5-hydroxycarbamoylpentyl)amide]
IC50 (HDAC (HeLa cell extract); [1]): 63 nM | IC50 (HDAC (HeLa cell extract); comparative tables, read-out: HeLa IC50): 63 nM | IC50 (HeLa cells): 17000 nM

Cn1cccc1/C=C/C(=O)NCCCCCC(=O)NO [PX117239, E-3-(1-Methyl-1H-pyrrol-2-yl)-N-(5-hydroxycarbamoylpentyl)-acrylamide]
HDAC Inhibition HeLa, percent (HDAC (HeLa cell extract)): 85% @ 500 nM | IC50 (HeLa cells): 10000 nM

C/C(=C\C(=O)NCCCCCC(=O)NO)c1ccccc1 [PX117254, E-3-Phenylbut-2-enoic acid (5-hydroxycarbamoylpentyl)-amide]
IC50 (HDAC (HeLa cell extract); [1]): 40 nM | IC50 (HeLa cells): 6600 nM

O=C(/C=C/C=C/c1ccccc1Cl)NCCCCCC(=O)NO [PX117255, (2E)(4E)-5-(2-Chlorophenyl)penta-2,4-dienoic acid (5-hydroxycarbamoylpentyl)amide]
IC50 (HDAC (HeLa cell extract); [1]): 50 nM | IC50 (HeLa cells): 18000 nM

O=C(CCCCCCC(=O)NC(c1ccccc1)c1ccccc1)NO [PX117417, N^1-benzhydryl-N^8-hydroxyoctanediamide]
HDAC Inhibition HeLa, percent (HDAC (HeLa cell extract)): 56% @ 500 nM | melting point: 155 to 156.5 °C

O=C(CCCCCCC(=O)NCc1ccccc1)NO [PX117418, Octanedioic acid benzylamide hydroxyamide]
HDAC Inhibition HeLa, percent (HDAC (HeLa cell extract)): 39% @ 500 nM | melting point: 126 to 126.5 °C

O=C(CCCCCNC(=O)Cc1csc2ccccc12)NO [PX117442, 6-(2-Benzothiophen-3-yl-acetylamino)-hexanoic acid hydroxyamide]
HDAC Inhibition HeLa, percent (HDAC (HeLa cell extract)): 31% @ 500 nM | melting point: 113 to 115 °C
